Here are results for 15 molecules from US12291504B2 (University of Pittsburgh—Of the Commonwealth System of …, priority 2018, dated 2025).

Where two headings read alike, the source gives them in different places.

Common to all, as to assay type: biochemical
One test concerns the target SULT1A1 (Homo sapiens, UniProt P50225). The test is described as follows: SULT1A1 inhibition, 1-HP initial-rate assay. To be noted: ND = inhibition was not detected at 30 μM compound, parentheses one standard error; for inhibition: read-out: SULT1A1 Enzyme Inhibition at Saturation/%. Here is the method:
(§1) Inhibition studies. Inhibition parameters were determined under conditions identical to those described above (see, Initial-Rate Studies) except that [1-HP] was increased to 5.0 μM (˜61×Km) and inhibitor concentration was varied between 0.20-20×Ki. Ki was obtained using a least-squares fit to the following partial inhibition equation (25,28): v=kcat·(Ki+(1/kcat inh)·[I])/(Ki+[I]), where kcat inh is enzyme turnover at saturating substrates and allosteric inhibitor.
(§2) Inhibition studies. Inhibition parameters were determined under conditions identical to those described above (see, Initial-Rate Studies) except that [1-HP] was increased to 5.0 μM (˜61×Km) and inhibitor concentration was varied between 0.20-20×Ki. Ki was obtained using a least-squares fit to the following partial inhibition equation (47,50): V/Vax=(Ki+α·[I])/(Ki+[I]), where α is percentage of enzyme turnover remaining at saturating substrates and allosteric inhibitor.

The target of the next test is SULT1A3 (Homo sapiens, UniProt P0DMM9). The experiment in a line: SULT1A3 inhibition studies, 1-HP initial-rate fluorescence assay. As to conditions: for inhibition: read-out: SULT1A3 Enzyme Inhibition at Saturation/%. More on the design: Wild-type and mutant SULT1A3 coding regions were inserted into a pGEX-6P expression vector; N-His/GST/MBP triple-tag (N, cleaved yes); made in house; host or cells: E. coli BL21(DE3); inhibition: dose or concentration left out as unconfirmed. Here is the method: The initial rates of SULT catalyzed 1-HP sulfonation are plotted as a function of inhibitor concentration, and are normalized relative to [inhibitor]=0. Enzyme activity was monitored by the sulfonation dependent change in 1-HP fluorescence (λex=325 nm, λem=370 nm). Less than 5% of the concentration-limiting substrate converted at the reaction endpoint was consumed during initial-rate measurements. Each point is the average of three independent determinations. Conditions: SULT (20 nM, active sites), PAPS (0.50 mM, 17×Km), 1-HP (5.0 μM, 61×Km), KPO4 (50 mM), pH 7.5, 25±2° C.
Sequence of SULT1A3 (P0DMM9 whole entry): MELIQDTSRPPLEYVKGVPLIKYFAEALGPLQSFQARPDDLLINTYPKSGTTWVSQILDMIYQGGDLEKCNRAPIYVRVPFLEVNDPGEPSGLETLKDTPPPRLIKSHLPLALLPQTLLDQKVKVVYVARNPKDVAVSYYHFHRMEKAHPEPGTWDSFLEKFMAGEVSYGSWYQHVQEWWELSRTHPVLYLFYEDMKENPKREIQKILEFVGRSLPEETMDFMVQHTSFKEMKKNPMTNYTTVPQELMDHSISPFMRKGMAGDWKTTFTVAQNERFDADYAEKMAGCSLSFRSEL
(§3) Initial-Rate Studies. Initial-rate parameters for the labeled or mutant SULT1A3 constructs were determined using a previously described 1-HP assay (25). Briefly, reactions were initiated by addition of PAPS (0.50 mM, 17×Km) to a solution containing enzyme (20 nM, active sites), 1-HP (2.0 μM, ˜24×Km), and KPO4 (50 mM), pH 7.5, 25±2° C. Reactions were monitored via fluorescence change associated with the conversion of 1-HP to 1-HP-S (λex=325 nm, λem=370 nm). Keq for the 1-HP sulfonation reaction is −250. Given the reaction conditions outlined above, ≥99% of 1-HP is converted to 1-HP-S, and ˜0.4% of PAPS is converted to PAP at equilibrium. […] Reaction progress curves were analyzed to obtain initial-rate parameters as described previously (26,27).
as §1
as §3, with “(47).” for “(25).”, “˜250.” for “−250.”, “(48,49).” for “(26,27).”
as §2

In a further test the target is Green Monkey (1A3) (Chlorocebus sabaeus, UniProt Z9LO20H8W3). The experiment in a line: Inhibition of SULT1A3 homologues in different species: Green Monkey. Here is the method:
(§4) Compounds 12, 23 and 25 were also tested for Inhibition of SULT1A3 in different species.
(§5) Inhibition of SULT1A3 Homologues in Different Species. SULT1A3 is only expressed in humans and higher primates. SULT1D1 is the isoform expressed in dogs and rodents that sulfonates neurotransmitters and is most similar to SULT1A3. Three synthesized allosteres (12, 23, and 25) were tested against both 1A3 and 1D1 from different species in order to explore testing in animal models. […] Mice have been engineered such that their SULT1A1/2 enzymes have been knocked out and replaced with the human versions of those isoforms.

A further test deals with Rhesus Macaque (1A3) (Macaca mulatta, UniProt A0A5F7ZQH3). The test is described as follows: Inhibition of SULT1A3 homologues in different species: Rhesus Macaque. The procedure: as §4, §5
Sequence of Rhesus Macaque (1A3) (A0A5F7ZQH3 1-295): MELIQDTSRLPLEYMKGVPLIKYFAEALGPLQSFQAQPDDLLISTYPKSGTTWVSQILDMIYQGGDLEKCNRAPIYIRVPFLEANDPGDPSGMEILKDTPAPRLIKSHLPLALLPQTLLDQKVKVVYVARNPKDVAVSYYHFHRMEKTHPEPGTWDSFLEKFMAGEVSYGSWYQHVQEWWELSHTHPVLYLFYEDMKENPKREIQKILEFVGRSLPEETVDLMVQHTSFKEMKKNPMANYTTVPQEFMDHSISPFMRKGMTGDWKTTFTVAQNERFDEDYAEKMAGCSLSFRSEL
In a further test the target is Dog (1D1) (Canis lupus familiaris, UniProt A0A8I3RXJ1). The test is described as follows: Inhibition of SULT1A3 homologues in different species: Dog. The procedure: as §5, with “Compounds 12, 23 and 25 were also tested for Inhibition of SULT1A3 in different species. Inhibition” for “Inhibition”
Sequence of Dog (1D1) (A0A8I3RXJ1 entry or part of it): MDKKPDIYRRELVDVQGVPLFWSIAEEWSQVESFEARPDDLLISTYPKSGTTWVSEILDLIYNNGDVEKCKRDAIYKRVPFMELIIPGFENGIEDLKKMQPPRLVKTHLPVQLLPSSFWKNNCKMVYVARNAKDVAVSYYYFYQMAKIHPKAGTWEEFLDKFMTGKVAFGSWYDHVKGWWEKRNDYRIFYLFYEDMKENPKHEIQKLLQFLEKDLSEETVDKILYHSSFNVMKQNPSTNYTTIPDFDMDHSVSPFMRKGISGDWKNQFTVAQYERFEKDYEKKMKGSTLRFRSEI
In a further test the target is Mouse (1D1) (Mus musculus, UniProt Q3UZZ6). The experiment in a line: Inhibition of SULT1A3 homologues in different species: Mouse. Here is the method:
as §4, §5

A further test concerns the target T1, Rat (1D1) (Rattus norvegicus, UniProt G3V9R3).
T1 sequence (G3V9R3 1-295): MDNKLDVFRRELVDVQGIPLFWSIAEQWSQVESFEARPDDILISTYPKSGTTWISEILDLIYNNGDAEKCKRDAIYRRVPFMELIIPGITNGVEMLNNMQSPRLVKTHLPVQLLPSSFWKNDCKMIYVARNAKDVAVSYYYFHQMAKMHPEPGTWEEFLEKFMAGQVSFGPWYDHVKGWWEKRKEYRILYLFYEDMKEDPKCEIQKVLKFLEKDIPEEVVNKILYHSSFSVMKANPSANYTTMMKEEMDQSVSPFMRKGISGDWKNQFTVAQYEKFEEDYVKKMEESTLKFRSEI
The test is described as follows: Inhibition of SULT1A3 homologues in different species: Rat. Here is the method: as §4, §5

[1] abbreviates: ND = inhibition was not detected at 30 μM compound, parentheses one standard error, read-out: SULT1A3 Ki/μM.

Sequence of SULT1A1 (P50225 whole entry): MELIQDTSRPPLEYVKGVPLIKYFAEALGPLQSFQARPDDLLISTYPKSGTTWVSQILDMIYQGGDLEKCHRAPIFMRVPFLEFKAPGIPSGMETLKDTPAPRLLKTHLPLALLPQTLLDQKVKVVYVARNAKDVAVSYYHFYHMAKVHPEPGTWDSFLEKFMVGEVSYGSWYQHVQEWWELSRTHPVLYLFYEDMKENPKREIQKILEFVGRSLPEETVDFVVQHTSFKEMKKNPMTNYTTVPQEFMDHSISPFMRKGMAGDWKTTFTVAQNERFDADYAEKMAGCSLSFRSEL
Sequence of Mouse (1D1) (Q3UZZ6 whole entry): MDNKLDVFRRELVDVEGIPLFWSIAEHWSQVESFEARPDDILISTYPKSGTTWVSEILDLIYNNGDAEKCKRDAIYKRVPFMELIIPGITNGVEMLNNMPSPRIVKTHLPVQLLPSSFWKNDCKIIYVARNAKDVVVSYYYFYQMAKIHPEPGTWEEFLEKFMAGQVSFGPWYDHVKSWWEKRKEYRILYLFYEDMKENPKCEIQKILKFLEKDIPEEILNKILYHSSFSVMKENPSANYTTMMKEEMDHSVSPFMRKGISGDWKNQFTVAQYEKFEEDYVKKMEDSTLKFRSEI
Sequence of Green Monkey (1A3) (Z9LO20H8W3 1-295): as the sequence (A0A5F7ZQH3 1-295) above, with T7A, M15V, Y23C, K230R, F247Y, E278A counted along it

Consider `COCc1ccc2nc(CC(C)C)ccc2c1` [Compound 3, 2-Isobutyl-6-(methoxymethyl)quinolone], for which the Ki on SULT1A1 worked out at 5.7 µM; at SULT1A3 (setting [1]), 6.1 µM. In addition, the inhibition at SULT1A1 and at SULT1A3 (parentheses one standard error) was 10% in each case.

In the case of `Cc1nc2ccc(CO)cc2cc1CC(C)C` [Compound 4], on SULT1A1, the Ki worked out at 7.7 µM and the inhibition stood at 20%. The Ki at SULT1A3 (setting [1]) was determined as 7.5 µM.

As for `CCCn1cc(-c2ccc3ncccc3c2)nn1` [Compound 5, 6-(1-Propyl-1H-1,2,3-triazol-4-yl)quinoline], the Ki on SULT1A1 came out at 4.7 µM; at SULT1A3 (setting [1]) it was 3.1 µM. The inhibition was 53% on SULT1A1 and 33% at SULT1A3 (parentheses one standard error).

As for `COC(=O)c1ccc2nc3c(cc2c1)C(=O)CC(C)C3` (stereo not shown) [Compound 6, Methyl 6-methyl-8-oxo-5,6,7,8-tetrahydroacridine-2-carboxylate], the Ki at SULT1A3 (setting [1]) turned out to be 0.66 µM. Further, the inhibition on SULT1A3 (parentheses one standard error) turned out to be 35%.

For the molecule `CCCCNC(=O)c1ccc2nc(CC(C)C)ccc2c1` [Compound 7, N-Butyl-2-isobutylquinoline-6-carboxamide], the results for the Ki at SULT1A1 and at SULT1A3 (setting [1]) were 5.1 µM and 1.3 µM, respectively. Besides, the figures for the inhibition at SULT1A1 and on SULT1A3 (parentheses one standard error) were 67% and 51%, respectively.

For `CCOC(=O)CCc1ccc2cc(CCC(N)=O)ccc2n1` [Compound 9, Ethyl 3-(6-(3-amino-3-oxopropyl)quinolin-2-yl)propanoate], the Ki on SULT1A3 (setting [1]) came out at 0.33 µM. Besides, on SULT1A3 (parentheses one standard error), the inhibition was found to be 63%.

Take `O=C(O)/C=C/c1ccc2ncccc2c1` [Compound 10, (E)-3-(quinolin-6-yl)acrylic acid]: the Ki at SULT1A1 came to 22 µM; at SULT1A3 (setting [1]) it was 4.1 µM. Also, the inhibition at SULT1A1 came to 30%; at SULT1A3 (parentheses one standard error) it was 72%.

Turning to `CC(C)Cc1ccc2cc(C(N)=O)ccc2n1` [Compound 11, 2-Isobutylquinoline-6-carboxamide], at SULT1A3 (setting [1]), the Ki came to 0.86 µM. In addition, on SULT1A3 (parentheses one standard error), the inhibition was determined as 78%.

`CC(C)Cc1ccc2cc(/C=C/C(N)=O)ccc2n1` [Compound 13, (E)-3-(2-Isobutylquinolin-6-yl)acrylamide]: the Ki on SULT1A1 was determined as 6.2 µM; on SULT1A3 (setting [1]), 0.19 µM. In addition, the inhibition on SULT1A1 worked out at 48%; on SULT1A3 (parentheses one standard error) it was 65%.

For the molecule `CC(C)(C)Cc1ccc2cc(CO)ccc2n1` [Compound 18], on SULT1A1, the Ki stood at 2.5 µM and the inhibition turned out to be 40%.

For `CCCn1cc(-c2ccc3ccc(O)cc3c2)nn1` [Compound 20], the values for the Ki on SULT1A1 and at SULT1A3 (setting [1]) were 12.1 µM and 2.6 µM, respectively. The inhibition stood at 17% on SULT1A1 and 16% at SULT1A3 (parentheses one standard error).

`CC(C)Cc1ccc2cc(/C=C/C(=O)O)cnc2n1` [Compound 24, (E)-3-(7-Isobutylnaphthyridin-3-yl)acrylic acid]: on SULT1A3 (setting [1]), the Ki was 3.1 µM. In addition, the inhibition on SULT1A3 (parentheses one standard error) was found to be 29.4%.

`CC(C)Cc1ccc2cc(CCC(N)=O)cnc2n1` [Compound 25]: the “Green Monkey (1A3) % inh” value on Green Monkey (1A3) was 72 (5) %. Besides, the Ki is 0.087 µM at Green Monkey (1A3) (parentheses one standard error); 0.025 µM on Rhesus Macaque (1A3) (parentheses one standard error); 0.052 µM at Dog (1D1) (standard error in neighbouring cell); 0.032 µM on Mouse (1D1) (parentheses one standard error); 1.1 µM on Rat (1D1) (parentheses one standard error); 0.017 µM at SULT1A3 (setting [1]). In addition, at SULT1A3 (standard error in neighbouring cell, read-out: Human (1A3) Ki), the Ki came to 0.017 µM. For the same molecule, the “Rhesus Macaque (1A3) % inh” value at Rhesus Macaque (1A3) is 95 (2) %. For the same molecule, at Dog (1D1), the “Dog (1D1) % inh” value was 73 (4) %. The “Mouse (1D1) % inh” value at Mouse (1D1) was 91 (2) %. At Rat (1D1), the “Rat (1D1) % inh” value is on record as 21 (3) %. On SULT1A3 (parentheses one standard error), the “Human (1A3) % inh” value is given as 90 (3) %. Further, on SULT1A3 (parentheses one standard error), the inhibition came to 90%.

Regarding `CC1CC(=O)c2cc3cc(C(N)=O)ccc3nc2C1` (stereo not shown) [Compound 27, 6-Methyl-8-oxo-5,6,7,8-tetrahydroacridine-2-carboxamide], the Ki at SULT1A3 (setting [1]) was 0.11 µM. The inhibition on SULT1A3 (parentheses one standard error) is 75%.

Consider `CC1Cc2nc3ccc(C(N)=O)cc3cc2C(O)C1` (stereo not shown) [Compound 28, 8-Hydroxy-6-methyl-5,6,7,8-tetrahydroacridine-2-carboxamide], for which the Ki at SULT1A3 (setting [1]) was 0.085 µM. Moreover, the inhibition on SULT1A3 (parentheses one standard error) was 52%.
